Structures can show the parent of a compound that is named as a salt.
tested on: ΔG/SEAP/HCV E1E2; assay: Effect of test substance on cell infection with HCV pseudotype virus (SEAP reporter assay in HepG2 cells); format: cell-based; details: Hepatitis C virus

Structure (SMILES)	IC50
COc1cc(OC)cc(-c2nn(-c3cc(N4CC[C@@H](O)C4)ccc3C(F)(F)F)c(=O)c3c2CCC3)c1 [Example 21, 4-(3,5-dimethoxy-phenyl)-2-[5-((R)-3-hydroxy-pyrrolidin-1-yl)-2-trifluoromethyl-phenyl]-2,5,6,7-tetrahydro-cyclopenta[d]pyridazin-1-one]	< 100 nM
Cc1cc(C)cc(-c2nn(-c3cc(-c4cccnn4)ccc3C(F)(F)F)c(=O)c3c2CC(C)N3)c1 (stereo not shown) [Example 12, 4-(3,5-dimethyl-phenyl)-2-methyl-6-(5-pyridazin-3-yl-2-trifluoromethyl-phenyl)-1,2,3,6-tetrahydro-pyrrolo[2,3-d]pyridazin-7-one]	< 100 nM
COc1cc(OC)cc(-c2nn(-c3cccc(N4CC[C@H](O)C4)c3)c(=O)c3c2CCN3)c1 [Example 52, 4-(3,5-dimethoxy-phenyl)-6-[3-((S)-3-hydroxy-pyrrolidin-1-yl)-phenyl]-1,2,3,6-tetrahydro-pyrrolo[2,3-d]pyridazin-7-one]	100 to 10000 nM
COc1cccc(-c2nn(-c3cc(N4CC[C@H](O)C4)ccc3C(F)(F)F)c(=O)c3c2CCC3)c1 [Example 58, 2-[5-((S)-3-hydroxy-pyrrolidin-1-yl)-2-trifluoromethyl-phenyl]-4-(3-methoxy-phenyl)-2,5,6,7-tetrahydro-cyclopenta[d]pyridazin-1-one]	< 100 nM
COc1cc(OC)cc(-c2nn(-c3cc(NCCCN)ccc3C(F)(F)F)c(=O)c3c2CCC3)c1 [Example 127, 2-[5-(3-amino-propylamino)-2-trifluoromethylphenyl]-4-(3,5-dimethoxy-phenyl)-2,5,6,7-tetrahydro-cyclopenta[d]pyridazin-1-one hydrochloride]	< 100 nM
COc1cc(OC)cc(-c2nn(-c3cc(N4CC[C@H](O)C4)ccc3C(F)(F)F)c(=O)c3c2CCN3CC(=O)NCCCN2CCN(CCCNC(C)=O)CC2)c1 [Example 56, N-{3-[4-(3-acetylamino-propyl)-piperazin-1-yl]-propyl}-2-{4-(3,5-dimethoxy-phenyl)-6-[5-((S)-3-hydroxy-pyrrolidin-1-yl)-2-trifluoromethyl-phenyl]-7-oxo-2,3,6,7-tetrahydro-pyrrolo[2,3-d]pyridazin-1-yl}-acetamide]	100 to 10000 nM
Cc1cc(-c2cnco2)cc(-c2nn(-c3cc(-c4cccnn4)ccc3C(F)(F)F)c(=O)c3c2CCC3)c1 [Example 3, 4-(3-methyl-5-oxazol-5-yl-phenyl)-2-(5-pyridazin-3-yl-2-trifluoromethyl-phenyl)-2,5,6,7-tetrahydro-cyclopenta[d]pyridazin-1-one]	< 100 nM
CC(=O)N[C@@H]1CCN(c2ccc(C(F)(F)F)c(-n3nc(-c4cc(C)cc(C)c4)c4c(c3=O)N(CC(N)=O)CC4)c2)C1 [Example 1-27, {6-[5-((R)-3-acetylamino-pyrrolidin-1-yl)-2-trifluoromethyl-phenyl]-4-(3,5-dimethyl-phenyl)-7-oxo-2,3,6,7-tetrahydro-pyrrolo[2,3-d]pyridazin-1-yl}-acetamide]	< 100 nM
COc1cc(OC)cc(-c2nn(-c3cc(NC(C)CO)ccc3C(F)(F)F)c(=O)c3c2CCC3)c1 (stereo not shown) [Example 131, 4-(3,5-dimethoxy-phenyl)-2-[5-(2-hydroxy-1-methyl-ethylamino)-2-trifluoromethyl-phenyl]-2,5,6,7-tetrahydro-cyclopenta[d]pyridazin-1-one]	< 100 nM
COc1cc(OC)cc(-c2nn(-c3cc(NCCCNC(=O)OC(C)(C)C)ccc3C(F)(F)F)c(=O)c3c2CCC3)c1 [Example 129, (3-{3-[4-(3,5-dimethoxy-phenyl)-1-oxo-1,5,6,7-tetrahydro-cyclopenta[d]pyridazin-2-yl]-4-trifluoromethyl-phenylamino}-propyl)-carbamic acid tert-butyl ester]	< 100 nM
CCCNc1ccc(C(F)(F)F)c(-n2nc(-c3cc(OC)cc(OC)c3)c3c(c2=O)CCC3)c1 [Example 100, 4-(3,5-dimethoxy-phenyl)-2-(5-propylamino-2-trifluoromethyl-phenyl)-2,5,6,7-tetrahydro-cyclopenta[d]pyridazin-1-one]	< 100 nM
COc1cc(OC)cc(-c2nn(-c3cc(NCCNC(C)=O)ccc3C(F)(F)F)c(=O)c3c2CCC3)c1 [Example 117, N-(2-{3-[4-(3,5-dimethoxy-phenyl)-1-oxo-1,5,6,7-tetrahydro-cyclopenta[d]pyridazin-2-yl]-4-trifluoromethyl-phenylamino}-ethyl)-acetamide]	< 100 nM
COc1cc(OC)cc(-c2nn(-c3cc(N4CC[C@H](O)C4)ccc3C(F)(F)F)c(=O)c3c2CCN3CCN)c1 [Example 49, 1-(2-amino-ethyl)-4-(3,5-dimethoxy-phenyl)-6-[5-((S)-3-hydroxy-pyrrolidin-1-yl)-2-trifluoromethylphenyl]-1,2,3,6-tetrahydro-pyrrolo[2,3-d]pyridazin-7-one]	< 100 nM
COC(=O)CCNc1ccc(C(F)(F)F)c(-n2nc(-c3cc(OC)cc(OC)c3)c3c(c2=O)CCC3)c1 [Example 143, 3-{3-[4-(3,5-dimethoxy-phenyl)-1-oxo-1,5,6,7-tetrahydro-cyclopenta[d]pyridazin-2-yl]-4-trifluoromethyl-phenylamino}-propionic acid methyl ester]	< 100 nM
COc1cc(OC)cc(-c2nn(-c3cc(-c4cccnn4)ccc3C(F)(F)F)c(=O)c3c2CC(C)N3)c1 (stereo not shown) [Example 19, 4-(3,5-dimethoxy-phenyl)-2-methyl-6-(5-pyridazin-3-yl-2-trifluoromethyl-phenyl)-1,2,3,6-tetrahydro-pyrrolo[2,3-d]pyridazin-7-one]	< 100 nM
Cc1cc(C)cc(-c2nn(-c3cc(-c4cccnn4)ccc3C(F)(F)F)c(=O)c3c2CCC3)c1 [Example 8, 4-(3,5-dimethyl-phenyl)-2-(5-pyridazin-3-yl-2-trifluoromethyl-phenyl)-2,5,6,7-tetrahydro-cyclopenta[d]pyridazin-1-one]	< 100 nM
COc1cc(OC)cc(-c2nn(-c3cc(Cl)ccc3C(F)(F)F)c(=O)c3c2CCN3)c1 [Example 51, 6-(5-chloro-2-trifluoromethyl-phenyl)-4-(3,5-dimethoxy-phenyl)-1,2,3,6-tetrahydro-pyrrolo[2,3-d]pyridazin-7-one]	100 to 10000 nM
CCOC(=O)N1CCc2c(-c3cc(OC)cc(OC)c3)nn(-c3cc(N4CC[C@H](O)C4)ccc3C(F)(F)F)c(=O)c21 [Example 60, 4-(3,5-dimethoxy-phenyl)-6-[5-((S)-3-hydroxy-pyrrolidin-1-yl)-2-trifluoromethyl-phenyl]-7-oxo-2,3,6,7-tetrahydro-pyrrolo[2,3-d]pyridazine-1-carboxylic acid ethyl ester]	< 100 nM
CCNC(=O)CN1CCc2c(-c3cc(OC)cc(OC)c3)nn(-c3cc(N4CC[C@H](O)C4)ccc3C(F)(F)F)c(=O)c21 [Example 33, 2-{4-(3,5-dimethoxy-phenyl)-6-[5-((S)-3-hydroxy-pyrrolidin-1-yl)-2-trifluoromethyl-phenyl]-7-oxo-2,3,6,7-tetrahydro-pyrrolo[2,3-d]pyridazin-1-yl}-N-ethyl-acetamide]	< 100 nM
O=c1c2c(c(-c3ccncc3)nn1-c1cc(N3CC[C@H](O)C3)ccc1C(F)(F)F)CCC2 [Example 95, 2-[5-((S)-3-hydroxy-pyrrolidin-1-yl)-2-trifluoromethyl-phenyl]-4-pyridin-4-yl-2,5,6,7-tetrahydro-cyclopenta[d]pyridazin-1-one]	100 to 10000 nM
COc1cc(OC)cc(-c2nn(-c3cc(OCCO)ccc3C(F)(F)F)c(=O)c3c2CCC3)c1 [Example 63, 4-(3,5-dimethoxy-phenyl)-2-[5-(2-hydroxy-ethoxy)-2-trifluoromethyl-phenyl]-2,5,6,7-tetrahydro-cyclopenta[d]pyridazin-1-one]	< 100 nM
COc1cc(OC)cc(-c2nn(-c3cc(N(C)CCCO)ccc3C(F)(F)F)c(=O)c3c2CCC3)c1 [Example 145, 4-(3,5-dimethoxy-phenyl)-2-{5-[(3-hydroxypropyl)-methyl-amino]-2-trifluoromethyl-phenyl}-2,5,6,7-tetrahydro-cyclopenta[d]pyridazin-1-one]	< 100 nM
CNCCNc1ccc(C(F)(F)F)c(-n2nc(-c3cc(OC)cc(OC)c3)c3c(c2=O)CCC3)c1 [Example 157, 4-(3,5-dimethoxy-phenyl)-2-[5-(2-methylamino-ethylamino)-2-trifluoromethyl-phenyl]-2,5,6,7-tetrahydro-cyclopenta[d]pyridazin-1-one hydrochloride]	100 to 10000 nM
COc1cc(OC)cc(-c2nn(-c3cc(N4CC[C@H](O)C4)ccc3C(F)(F)F)c(=O)c3c2CCN3CC(=O)N2CCN(C(C)=O)CC2)c1 [Example 41, 1-[2-(4-acetyl-piperazin-1-yl)-2-oxo-ethyl]-4-(3,5-dimethoxy-phenyl)-6-[5-((S)-3-hydroxy-pyrrolidin-1-yl)-2-trifluoromethyl-phenyl]-1,2,3,6-tetrahydro-pyrrolo[2,3-d]pyridazin-7-one]	< 100 nM
O=c1c2c(c(-c3ccccn3)nn1-c1cc(N3CC[C@H](O)C3)ccc1C(F)(F)F)CCC2 [Example 110, 2-[5-((S)-3-hydroxy-pyrrolidin-1-yl)-2-trifluoromethyl-phenyl]-4-pyridin-2-yl-2,5,6,7-tetrahydro-cyclopenta[d]pyridazin-1-one]	100 to 10000 nM
COc1cc(OC)cc(-c2nn(-c3cc(OCCCO)ccc3C(F)(F)F)c(=O)c3c2CCC3)c1 [Example 1-13, 4-(3,5-dimethoxy-phenyl)-2-[5-(3-hydroxy-propoxy)-2-trifluoromethyl-phenyl]-2,5,6,7-tetrahydro-cyclopenta[d]pyridazin-1-one]	< 100 nM
O=c1c2c(c(-c3cccnc3)nn1-c1cc(N3CC[C@H](O)C3)ccc1C(F)(F)F)CCC2 [Example 103, 2-[5-((S)-3-hydroxy-pyrrolidin-1-yl)-2-trifluoromethyl-phenyl]-4-pyridin-3-yl-2,5,6,7-tetrahydro-cyclopenta[d]pyridazin-1-one]	100 to 10000 nM
COc1cc(OC)cc(-c2nn(-c3cc(NCCNS(C)(=O)=O)ccc3C(F)(F)F)c(=O)c3c2CCC3)c1 [Example 137, N-(2-{3-[4-(3,5-dimethoxy-phenyl)-1-oxo-1,5,6,7-tetrahydro-cyclopenta[d]pyridazin-2-yl]-4-trifluoromethyl-phenylamino}-ethyl)-methanesulfonamide]	< 100 nM
